{"source": "patent US20260274853A1", "about": "“BIFUNCTIONAL COMPOUNDS CONTAINING PYRIMIDINE DERIVATIVES FOR DEGRADING CYCLIN-DEPENDENT KINASE 2 VIA UBIQUITIN PROTEASOME PATHWAY” (NIKANG THERAPEUTICS, INC., priority 2022, published 2026)", "key": {"CDK2 [1]": {"target": "T1, CDK2 (Homo sapiens, UniProt P24941)", "T1 construct": "High-Throughput Measurement of Cellular Endogenous CDK2; endogenous in cells; host or cells: OVCAR3", "assay": "Inhibition of CDK2: phospho-Rb (S807/811) HTRF measurement in OVCAR3 cells", "assay_type": "cell-based", "conditions": "24 h compound treatment, read-out: pRb (nM), IC50 in pRB(S807/811) assay"}, "CDK2 [2]": {"target": "T1, CDK2", "assay": "CDK2 HTRF assay: cellular endogenous CDK2 level in OVCAR3 cells", "assay_type": "cell-based", "conditions": "24 hours compound treatment; for DC50: read-out: DC50 (half maximal degradation concentration of CDK2)", "outline": "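Endogenous CDK2 degradation in OVCAR3 cells after 24 h compound treatment at 0.3–10,000 nM. Lysates assayed with an HTRF total-CDK2 two-antibody kit, TR-FRET 665/620 ratio normalized to DMSO. DC50 from four-parameter logistic fit, reported as potency bins.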"}}}
{"smiles": "Cn1c(S(=O)(=O)N2CCC(Nc3ncc(C(F)(F)F)c(-c4cnn(CC(F)(F)F)c4)n3)CC2)cnc1CN1CCN(c2ccc3c(N4CCC(=O)NC4=O)nn(C)c3c2)CC1", "note": "[Example 69, 1-(1-methyl-6-(4-((1-methyl-5-((4-((4-(1-(2,2,2-trifluoroethyl)-1H-pyrazol-4-yl)-5-(trifluoromethyl)pyrimidin-2-yl)amino)-piperidin-1-yl)sulfonyl)-1H-imidazol-2-yl)methyl)piperazin-1-yl)-1H-indazol-3-yl)dihydropyrimidine-2,4(1H,3H)-dione]", "values": [{"measurement": "IC50", "setting": "CDK2 [1]", "value": "< 100", "unit": "nM"}, {"measurement": "DC50", "setting": "CDK2 [2]", "value": "< 100", "unit": "nM"}]}
{"smiles": "Cn1nc(N2CCC(=O)NC2=O)c2ccc(C3CCN(Cc4cccc(S(=O)(=O)N5CCC(Nc6ncc(C(F)(F)F)c(-c7cnn(CC(F)(F)F)c7)n6)CC5)c4)CC3)c(F)c21", "note": "[Example 64, 1-(7-fluoro-1-methyl-6-(1-(3-((4-((4-(1-(2,2,2-trifluoroethyl)-1H-pyrazol-4-yl)-5-(trifluoromethyl)pyrimidin-2-yl)amino)-piperidin-1-yl)sulfonyl)-benzyl)-piperidin-4-yl)-1H-indazol-3-yl)dihydro-pyrimidine-2,4(1H,3H)-dione]", "values": [{"measurement": "IC50", "setting": "CDK2 [1]", "value": "< 100", "unit": "nM"}, {"measurement": "DC50", "setting": "CDK2 [2]", "value": "< 100", "unit": "nM"}]}
{"smiles": "Cn1nc(N2CCC(=O)NC2=O)c2ccc(C3CCN(Cc4cccc(S(=O)(=O)N5CCC(Nc6ncc(C(F)(F)F)c(-c7cnn(CC(F)(F)F)c7)n6)CC5)c4)CC3)cc21", "note": "[Example 4, 1-(1-methyl-6-(1-(3-((4-((4-(1-(2,2,2-trifluoroethyl)-1H-pyrazol-4-yl)-5-(trifluoromethyl)pyrimidin-2-yl)amino)-piperidin-1-yl)sulfonyl)-benzyl)-piperidin-4-yl)-1H-indazol-3-yl)dihydro-pyrimidine-2,4(1H,3H)-dione]", "values": [{"measurement": "IC50", "setting": "CDK2 [1]", "value": "< 100", "unit": "nM"}, {"measurement": "DC50", "setting": "CDK2 [2]", "value": "< 100", "unit": "nM"}]}
{"smiles": "Cn1nc(N2CCC(=O)NC2=O)c2ccc(N3CC4CC(C3)N4Cc3cccc(S(=O)(=O)N4CC[C@H](Nc5ncc(C(F)(F)F)c(-c6cnn(CC(F)(F)F)c6)n5)[C@H](F)C4)c3)cc21", "note": "[Example 82, 1-(6-(6-(3-(((3R,4S)-3-fluoro-4-((4-(1-(2,2,2-trifluoroethyl)-1H-pyrazol-4-yl)-5-(trifluoromethyl)pyrimidin-2-yl)amino)-piperidin-1-yl)sulfonyl)-benzyl)-3,6-diazabicyclo[3.1.1]heptan-3-yl)-1-methyl-1H-indazol-3-yl)dihydro-pyrimidine-2,4(1H,3H)-dione]", "values": [{"measurement": "IC50", "setting": "CDK2 [1]", "value": "< 100", "unit": "nM"}, {"measurement": "DC50", "setting": "CDK2 [2]", "value": "< 100", "unit": "nM"}]}
{"smiles": "O=C1CCC(N2Cc3cc(N4CCC5(CCN(Cc6cccc(S(=O)(=O)N7CCC(Nc8ncc(C(F)(F)F)c(-c9cnn(CC(F)(F)F)c9)n8)CC7)c6)CC5)CC4)ccc3C2=O)C(=O)N1", "note": "(stereo not shown) [Example 12, 3-(1-oxo-5-(9-(3-((4-((4-(1-(2,2,2-trifluoroethyl)-1H-pyrazol-4-yl)-5-(trifluoromethyl)pyrimidin-2-yl)amino)-piperidin-1-yl)sulfonyl)-benzyl)-3,9-diazaspiro[5.5]undecan-3-yl)isoindolin-2-yl)piperidine-2,6-dione]", "values": [{"measurement": "IC50", "setting": "CDK2 [1]", "value": "< 100", "unit": "nM"}, {"measurement": "DC50", "setting": "CDK2 [2]", "value": "< 100", "unit": "nM"}]}
{"smiles": "O=C1CCC(N2C(=O)c3cc(F)c(N4CCN(Cc5cccc(S(=O)(=O)N6CC[C@H](Nc7ncc(C(F)(F)F)c(-c8cnn(CC(F)(F)F)c8)n7)[C@H](F)C6)c5)CC4)cc3C2=O)C(=O)N1", "note": "(mixture of isomers) [Example 32, Rac-2-(2,6-dioxopiperidin-3-yl)-5-fluoro-6-(4-(3-(((3R,4S)-3-fluoro-4-((4-(1-(2,2,2-trifluoroethyl)-1H-pyrazol-4-yl)-5-(trifluoromethyl)-pyrimidin-2-yl)amino)piperidin-1-yl)sulfonyl)-benzyl)piperazin-1-yl)-isoindoline-1,3-dione]", "values": [{"measurement": "IC50", "setting": "CDK2 [1]", "value": "1000 to 10000", "unit": "nM"}, {"measurement": "DC50", "setting": "CDK2 [2]", "value": "100 to 500", "unit": "nM"}]}
{"smiles": "O=C1CCN(c2ccc(N3CCN(Cc4cccc(S(=O)(=O)N5CC[C@@H](Nc6ncc(C(F)(F)F)c(-c7cnn(CC(F)(F)F)c7)n6)[C@@H](F)C5)c4)CC3)cc2)C(=O)N1", "note": "(racemic) [Example 28, Rac-1-(4-(4-(3-(((3R,4S)-3-fluoro-4-((4-(1-(2,2,2-trifluoroethyl)-1H-pyrazol-4-yl)-5-(trifluoromethyl)-pyrimidin-2-yl)amino)piperidin-1-yl)sulfonyl)-benzyl)piperazin-1-yl)phenyl)dihydro-pyrimidine-2,4(1H,3H)-dione]", "values": [{"measurement": "IC50", "setting": "CDK2 [1]", "value": "100 to 500", "unit": "nM"}, {"measurement": "DC50", "setting": "CDK2 [2]", "value": "< 100", "unit": "nM"}]}
{"smiles": "O=C1CCC(N2Cc3cc(N4CCN(Cc5cccc(S(=O)(=O)N6CCC(Nc7ncc(C(F)(F)F)c(-c8cnn(CC(F)(F)F)c8)n7)CC6)c5)CC4)c(F)cc3C2=O)C(=O)N1", "note": "(stereo not shown) [Example 15, 3-(6-fluoro-1-oxo-5-(4-(3-((4-((4-(1-(2,2,2-trifluoroethyl)-1H-pyrazol-4-yl)-5-(trifluoromethyl)pyrimidin-2-yl)-amino)piperidin-1-yl)sulfonyl)benzyl)-piperazin-1-yl)isoindolin-2-yl)-piperidine-2,6-dione]", "values": [{"measurement": "IC50", "setting": "CDK2 [1]", "value": "< 100", "unit": "nM"}, {"measurement": "DC50", "setting": "CDK2 [2]", "value": "< 100", "unit": "nM"}]}
{"smiles": "Cn1nc(N2CCC(=O)NC2=O)c2ccc(N3CCN(CC4CCN(S(=O)(=O)N5CCC(Nc6ncc(C(F)(F)F)c(-c7cnn(CC(F)(F)F)c7)n6)CC5)CC4)CC3)cc21", "note": "[Example 86, 1-(1-methyl-6-(4-((1-((4-((4-(1-(2,2,2-trifluoroethyl)-1H-pyrazol-4-yl)-5-(trifluoromethyl)pyrimidin-2-yl)-amino)piperidin-1-yl)sulfonyl)-piperidin-4-yl)methyl)piperazin-1-yl)-1H-indazol-3-yl)dihydropyrimidine-2,4(1H,3H)-dione]", "values": [{"measurement": "IC50", "setting": "CDK2 [1]", "value": "< 100", "unit": "nM"}, {"measurement": "DC50", "setting": "CDK2 [2]", "value": "< 100", "unit": "nM"}]}
{"smiles": "O=C1CCC(NS(=O)(=O)N2CCC(Nc3ncc(C(F)(F)F)c(-c4cnn(CC(F)(F)F)c4)n3)CC2)C(=O)N1", "note": "(stereo not shown) [Example 83, N-(2,6-dioxopiperidin-3-yl)-4-((4-(1-(2,2,2-trifluoroethyl)-1H-pyrazol-4-yl)-5-(trifluoromethyl)pyrimidin-2-yl)-amino)piperidine-1-sulfonamide]", "values": [{"measurement": "IC50", "setting": "CDK2 [1]", "value": "100 to 500", "unit": "nM"}, {"measurement": "DC50", "setting": "CDK2 [2]", "value": "< 100", "unit": "nM"}]}
{"smiles": "Cn1c(S(=O)(=O)N2CCC(Nc3ncc(C(F)(F)F)c(-c4cnn(CC(F)(F)F)c4)n3)CC2)cnc1CN1CCN(c2ccc(N3CCC(=O)NC3=O)cc2)CC1", "note": "[Example 26, 1-(4-(4-((1-methyl-5-((4-((4-(1-(2,2,2-trifluoroethyl)-1H-pyrazol-4-yl)-5-(trifluoromethyl)pyrimidin-2-yl)amino)-piperidin-1-yl)sulfonyl)-1H-imidazol-2-yl)methyl)piperazin-1-yl)phenyl)dihydro-pyrimidine-2,4(1H,3H)-dione]", "values": [{"measurement": "IC50", "setting": "CDK2 [1]", "value": "100 to 500", "unit": "nM"}, {"measurement": "DC50", "setting": "CDK2 [2]", "value": "< 100", "unit": "nM"}]}
{"smiles": "Cn1nc(N2CCC(=O)NC2=O)c2ccc(C3CCN(CC4CCN(S(=O)(=O)N5CCC(Nc6ncc(C(F)(F)F)c(-c7cnn(CC(F)(F)F)c7)n6)CC5)C4)CC3)cc21", "note": "(stereo not shown) [Example 88, 1-(1-methyl-6-(1-((1-((4-((4-(1-(2,2,2-trifluoroethyl)-1H-pyrazol-4-yl)-5-(trifluoromethyl)pyrimidin-2-yl)amino)-piperidin-1-yl)sulfonyl)-pyrrolidin-3-yl)methyl)piperidin-4-yl)-1H-indazol-3-yl)dihydropyrimidine-2,4(1H,3H)-dione]", "values": [{"measurement": "IC50", "setting": "CDK2 [1]", "value": "< 100", "unit": "nM"}, {"measurement": "DC50", "setting": "CDK2 [2]", "value": "< 100", "unit": "nM"}]}
{"smiles": "O=C1CCC(N2C(=O)c3cc(F)c(N4CCN(Cc5cccc(S(=O)(=O)N6CCC(Nc7nccc(-c8cnn(CC(F)(F)F)c8)n7)CC6)c5)CC4)cc3C2=O)C(=O)N1", "note": "(stereo not shown) [Example 17, 2-(2,6-dioxopiperidin-3-yl)-5-fluoro-6-(4-(3-((4-((4-(1-(2,2,2-trifluoroethyl)-1H-pyrazol-4-yl)pyrimidin-2-yl)amino)-piperidin-1-yl)sulfonyl)benzyl)-piperazin-1-yl)isoindoline-1,3-dione]", "values": [{"measurement": "IC50", "setting": "CDK2 [1]", "value": "1000 to 10000", "unit": "nM"}, {"measurement": "DC50 (half maximal degradation concentration of CDK2)", "setting": "CDK2 [2]", "value": "no curve"}]}
{"smiles": "CN1CCC(n2cc(-c3nc(NC4CCN(S(=O)(=O)c5cccc(CN6CCC(c7ccc8c(N9CCC(=O)NC9=O)nn(C)c8c7)CC6)c5)CC4)ncc3C(F)(F)F)cn2)CC1", "note": "[Example 79, 1-(1-methyl-6-(1-(3-((4-((4-(1-(1-methylpiperidin-4-yl)-1H-pyrazol-4-yl)-5-(trifluoromethyl)pyrimidin-2-yl)-amino)piperidin-1-yl)sulfonyl)-benzyl)-piperidin-4-yl)-1H-indazol-3-yl)dihydro-pyrimidine-2,4(1H,3H)-dione]", "values": [{"measurement": "IC50", "setting": "CDK2 [1]", "value": "< 100", "unit": "nM"}, {"measurement": "DC50", "setting": "CDK2 [2]", "value": "< 100", "unit": "nM"}]}
